From patent US5843941A, “Ras farnesyl transferase inhibitors” (Genentech, Inc., priority 1994, dated 1998)
Like-named read-outs stand apart in the source and are kept apart here.

Experiments:
[1] = biological target: T1, CAAX farnesyltransferase (Rattus norvegicus, UniProt Q02293+Q04631); test: In vitro farnesylation of the compound by CAAX farnesyltransferase (substrate test, thin layer chromatography); format: biochemical; conditions: relative to tetrapeptide CVIM, 3.6 μM, 37° C., 30 min; for % farnesylation "A": diastereomer A; for % farnesylation "B": diastereomer B
T1 sequence (Q02293 whole entry, one chain of several): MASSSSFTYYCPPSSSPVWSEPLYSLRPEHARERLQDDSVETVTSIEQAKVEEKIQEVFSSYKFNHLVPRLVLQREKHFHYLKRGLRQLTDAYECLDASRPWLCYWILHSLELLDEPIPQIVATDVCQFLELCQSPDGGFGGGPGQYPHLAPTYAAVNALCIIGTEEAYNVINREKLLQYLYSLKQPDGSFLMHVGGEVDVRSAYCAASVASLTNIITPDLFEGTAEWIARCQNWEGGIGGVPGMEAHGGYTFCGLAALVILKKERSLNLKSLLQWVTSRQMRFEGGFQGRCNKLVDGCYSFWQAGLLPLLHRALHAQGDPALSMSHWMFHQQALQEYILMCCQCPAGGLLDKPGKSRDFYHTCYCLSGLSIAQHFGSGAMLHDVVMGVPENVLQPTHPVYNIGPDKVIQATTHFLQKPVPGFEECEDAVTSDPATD
Protocol: After incubation at 37° C. for 30 min, the reaction was stopped by addition of 2 μl of 250 mM EDTA, and the entire reaction mixture was spotted onto a plastic-backed Silica Gel G thin layer sheet (20×20 cm, Brinkmann Inst.) and placed in a tank containing n-propyl alcohol/ammonium hydroxide/water (6:3:1 v/v/v).

[2] = biological target: T1, CAAX farnesyltransferase; test: In vitro inhibition of CAAX farnesyltransferase; format: biochemical; design: purified to homogeneity from rat brain homogenates; from tissue; host or cells: rat brain; alternatively recombinant enzyme from a baculovirus expression system; conditions: Table D
Protocol: All compounds were tested for in vitro inhibition of CAAX protein farnesyltransferase. […] Alternatively, recombinant CAAX protein farnesyltransferase was also used in this assay. […] Seventy-two hrs after infection, the cells were harvested and disrupted and the enzyme isolated by chromatography on Q-Sepharose.
After incubation for 30 min at 37° C., the amount of [3H]famesyl group transferred to p21H-ras was measured by precipitation with SDS/trichloroacetic acid, filtration onto nitrocellulose, and scintillation counting.
Structures of the compounds tested are reproduced below. Compound numbers also refer to example numbers above.

[3] = diastereomer A, read-out: EC50 (μM) "A"
[4] = diastereomer B, read-out: EC50 (μM) "B"

Row | SMILES | % farnesylation "A" [1] [%] | % farnesylation "B" [1] [%] | EC50 [2, 3] [µM] | EC50 [2, 4] [µM]
1 | CSCC[C@H](NC(=O)CN1C(=O)C(N(C)C(=O)[C@@H](N)CS)CCc2ccccc21)C(=O)O (stereo partly drawn) [compound 9] | < 1 | < 1 | 1.2 | 0.024
2 | CSCC[C@H](NC(=O)CN1C(=O)C(NC(=O)[C@@H](N)CS)CCc2ccccc21)C(=O)O (stereo partly drawn) [compound 10] | 20 | < 1 | 1.6 | 1.4
3 | CSCC[C@H](NC(=O)CN1C(=O)C(N(C)C(=O)[C@@H](N)CS)N=C(c2ccccc2)c2ccccc21)C(=O)O (stereo partly drawn) [compound 27, N-[[3-[(2-amino-3-mercapto-1-oxopropyl)methylamnino]-2,3-dihydro-2-oxo-5-phenyl-1H -1,4-benzodiazepin-1-yl]acetyl]-L-methionine] | 5 | < 1 | 0.8 | 0.0003
4 | CN(C(=O)[C@@H](N)CS)C1N=C(c2ccccc2)c2cc(Cl)ccc2N(CC(=O)N[C@@H](Cc2ccccc2)C(N)=O)C1=O (stereo partly drawn) [compound 69, N-[[3-[(2-amino-3-mercapto-1-oxopropyl)methylamino]-2,3-dihydro-2-oxo-5phenyl-7-chloro-1H-1,4-benzodiazepin-1-yl]acetyl]-L-phenylalanine amide] |  |  | 1.5 | 0.0036
5 | CN(C(=O)[C@@H](N)CS)C1N=C(c2ccccc2)c2cc(Cl)ccc2N(CC(=O)N[C@@H](Cc2ccc(F)cc2)C(=O)O)C1=O (stereo partly drawn) [compound 70, N-[[3-[(2-amino-3-mercapto-1-oxopropyl)methylamino]-2,3-dihydro-2-oxo-5-phenyl-7-chloro-1H-1,4-benzodiazepin-1-yl]acetyl]-L-4-fluoro-phenylalanine] |  |  | 0.13 | 0.0008
6 | CN(C(=O)[C@@H](N)CS)C1N=C(c2ccccc2)c2cc(Cl)ccc2N(CC(=O)N[C@H](C(=O)O)C2CCCCC2)C1=O (stereo partly drawn) [compound 71, N-[[3-[(2-amino-3-mercapto-1-oxopropyl)methylamino]-2,3-dihydro-2-oxo-5-phenyl-7-chloro-1H-1,4-benzodiazepin-1-yl]acetyl]-L-(α-cyclohexyl)-glycine] |  |  | 0.1 | 0.0007
7 | CN(C(=O)[C@@H](N)CS)C1N=C(c2ccccc2)c2cc(Cl)ccc2N(CC(=O)N[C@H](C(N)=O)C2CCCCC2)C1=O (stereo partly drawn) [compound 72, N-[[3-[(2-amino-3-mercapto-1-oxopropyl)methylamino]-2,3-dihydro-2-oxo-5-phenyl-7-chloro-1H-1,4-benzodiazepin-1-yl]acetyl]-L-(α-cyclohexyl)-glycine amide] |  |  | 0.6 | 0.0017
8 | CSCC[C@H](NC(=O)CN1C(=O)C(N(C)C(=O)[C@@H](N)CS)C=C(c2ccccc2F)c2cc(Cl)ccc21)C(=O)O (stereo partly drawn) [compound 80, N-[[3-[(2-amino-3-mercapto-1-oxopropyl)methylamino]-2,3-dihydro-2-oxo-5-(2'-fluorophenyl)-7-chloro-1H-1,4-benzazepin-1-yl]acetyl]-L-methionine] |  |  | 0.0003 | 0.0003
9 | CSCC[C@H](NC(=O)CN1C(=O)C(N(C)C(=O)[C@@H](N)CS)N=C(c2ccccc2Cl)c2cc(Cl)ccc21)C(=O)O (stereo partly drawn) [compound 81, N-[[3-[(2-amino-3-mercapto-1-oxopropyl)methylamino]-2,3-dihydro-2-oxo-5-(2'-chlorophenyl)-7-chloro-1H-1,4-benzodiazepin-1-yl]acetyl]-L-methionine] |  |  | 0.43 | 0.0002
10 | CSCC[C@H](NC(=O)CN1C(=O)C(N(C)C(=O)[C@@H](N)CS)N=C(c2ccccc2F)c2cc(Cl)ccc21)C(=O)O (stereo partly drawn) [compound 82, N-[[3-[(2-amino-3-mercapto-1-oxopropyl)methylamino]-2,3-dihydro-2-oxo-5-(2'-fluorophenyl)-7-chloro-1H-1,4-benzodiazepin-1-yl]acetyl]-L-methionine] |  |  | 0.25 | 0.001
11 | CSCC[C@H](NC(=O)CN1C(=O)C(N(C)C(=O)[C@@H](N)CS)C=C(c2ccccc2)c2cc(Cl)ccc21)C(=O)O (stereo partly drawn) [compound 83, N-[[3-[(2-amino-3-mercapto-1-oxopropyl)methylamino]-2,3-dihydro-2-oxo-5-phenyl-7-chloro-1H-1,4-benzazepin-1-yl]acetyl]-L-methionine] |  |  |  | 0.0007
12 | CSCC[C@H](NC(=O)CN1C(=O)C(N(C)C(=O)[C@@H](N)CS)C=C(c2ccccc2Cl)c2cc(Cl)ccc21)C(=O)O (stereo partly drawn) [compound 92] |  |  | 0.001 | 0.001
13 | CN(C(=O)C(N)CS)C1N=C(c2ccccc2)c2ccccc2N(Cc2cccc(C#N)c2)C1=O (stereo not drawn) [compound 93, N-[[3-[(2-amino-3-mercapto-1-oxopropyl)methylamino]-2,3-dihydro-2-oxo-5-phenyl-1H-1,4-benzodiazepin-1-yl]methyl]-3-benzonitrile] |  |  | 0.82 | 0.004
14 | COC(=O)c1cccc(CN2C(=O)C(N(C)C(=O)C(N)CS)N=C(c3ccccc3)c3ccccc32)c1 (stereo not drawn) [compound 94, N-[[3-[(2-amino-3-mercapto-1-oxopropyl)methylamino]-2,3-dihydro-2-oxo-5-phenyl-1H-1,4-benzodiazepin-1-yl]methyl]-3-carboxymethylbenzene] |  |  | 0.82 | 0.0042
15 | CN(C(=O)C(N)CS)C1N=C(c2ccccc2)c2ccccc2N(Cc2cccc(C(=O)O)c2)C1=O (stereo not drawn) [compound 95, N-[[3-[(2-amino-3-mercapto-1-oxopropyl)methylamino]-2,3-dihydro-2-oxo-5-phenyl-1H-1,4-benzodiazepin-1-yl]methyl]-3-carboxybenzene] |  |  | 0.88 | 0.0066
16 | CN(C(=O)C(N)CS)C1N=C(c2ccccc2)c2ccccc2N(Cc2cccc(-c3nnn[nH]3)c2)C1=O (stereo not drawn) [compound 96, N-[[3-[(2-amino-3-mercapto-1-oxopropyl)methylanino]-2,3-dihydro-2-oxo-5-phenyl-1H-1,4benzodiazepin-1-yl]methyl]-3-tetrazolylbenzene] |  |  | 0.23 | 0.0013
17 | COC(=O)c1cccc(CN2C(=O)C(N(C)C(=O)[C@@H](N)CS)N=C(c3ccccc3)c3cc(Cl)ccc32)c1 (stereo partly drawn) [compound 97, N-[[3-[(2-amino-3-mercapto-1-oxopropyl)methylamino]-2,3-dihydro-2-oxo-5-phenyl-7-chloro-1H-1,4-benzodiazepin-1-yl]methyl]-3-carboxymethylbenzene] |  |  |  | 0.0003
18 | CN(C(=O)[C@@H](N)CS)C1N=C(c2ccccc2)c2ccccc2N(Cc2ccc(-c3ccccc3-c3nnn[nH]3)cc2)C1=O (stereo partly drawn) [compound 98, N-[[3-[(2-amino-3-mercapto-1-oxopropyl)methylamino]-2,3-dihydro-2-oxo-5-phenyl-1H-1,4-benzodiazepin-1-yl]methyl]-4-(2-tetrazolylphenyl) benzene] |  |  | 0.84 | 0.006
19 | Cc1cccc(CN2C(=O)C(N(C)C(=O)[C@@H](N)CS)N=C(c3ccccc3)c3cc(Cl)ccc32)c1 (stereo partly drawn) [compound 102, N-[[3-[(2-amino-3-mercapto-1-oxopropyl)methylamino]-2,3-dihydro-2-oxo-5-phenyl-7-chloro-1H-1,4-benzodiazepin-1-yl]methyl]-3-methylbenzene] |  |  | 0.11 | 0.038
20 | CN(C(=O)[C@@H](N)CS)C1N=C(c2ccccc2)c2cc(Cl)ccc2N(Cc2cccc(C(F)(F)F)c2)C1=O (stereo partly drawn) [compound 103, N-[[3-[(2-amino-3-mercapto-1-oxopropyl)methylamino]-2,3-dihydro-2-oxo-5-phenyl-7-chloro-1H-1,4-benzodiazepin-1-yl]methyl]-3-trifluoromethylbenzene] |  |  | 0.0074 | 0.0074
21 | Cc1ccc(CN2C(=O)C(N(C)C(=O)[C@@H](N)CS)N=C(c3ccccc3)c3cc(Cl)ccc32)cc1 (stereo partly drawn) [compound 104, N-[[3-[(2-amino-3-mercapto-1-oxopropyl)methylamino]-2,3-dihydro-2-oxo-5-phenyl-7-chloro-1H-1,4-benzodiazepin-1-yl]methyl]-4-methylbenzene] |  |  | 0.0048 | 0.0048
22 | CN(C(=O)[C@@H](N)CS)C1N=C(c2ccccc2)c2cc(Cl)ccc2N(Cc2ccccc2Cl)C1=O (stereo partly drawn) [compound 107, N-[[3-[(2-amino-3-mercapto-1-oxopropyl)methylamino]-2,3-dihydro-2-oxo-5-phenyl-7-chloro-1H-1,4-benzodiazepin-1-yl]methyl]-2-chlorobenzene] |  |  | 0.006 | 0.006
23 | CSCC[C@H](NC(=O)CN1C(=O)C(N(C)C(=O)[C@@H](N)CSSC(C)(C)C)C=C(c2ccccc2F)c2cc(Cl)ccc21)C(=O)OC1CCCCC1 (stereo partly drawn) [compound 113, N-[[3-[(2-amino-3-tert-butylthiomercapto-1-oxopropyl)methylamino]-2,3-dihydro-2-oxo-5-(2'-fluorophenyl)-7-chloro-1H-1,4-benzazepin-1-yl]acetyl]-L-methionine cyclohexyl ester] |  |  | > 3 | > 3
24 | CSCC[C@H](NC(=O)CN1C(=O)C(N(C)C(=O)[C@@H](N)CSSC(C)(C)C)N=C(c2ccccc2)c2ccccc21)C(=O)OC(C)(C)C (stereo partly drawn) [compound 118, N-[[3-[(2-amino-3-tert-butylthiomercapto-1-oxopropyl)methylamino]-2,3-dihydro-2-oxo-5-phenyl-1H-1,4-benzodiazepin-1-yl]acetyl]-L-methionine tert-butyl ester] |  |  |  | 0.9
